According to ChEMBL document CHEMBL4382204 (Eur J Med Chem, 2018):
Active and inactive are the calls of the source. The rule behind the calls is not given here.

Key:
[1] = Cmax in mouse at 10 mg/kg, po by LC-MS/MS analysis; type: ADME, organism-based; parameters: dose 10 mg/kg, route oral; details: in vivo
[2] = AUC (0 to t) in Sprague-Dawley rat at 1 mg/kg, iv by LC-MS/MS analysis; type: ADME, organism-based; details: in vivo
[3] = test system: U-937; assay: Antiproliferative activity in human U937 cells after 72 hrs by CCK8 assay; type: functional; details: U-937, 72 h
[4] = test system: MEC1; assay: Antiproliferative activity in human MEC1 cells after 72 hrs by CCK8 assay; type: functional; details: MEC1, 72 h
[5] = target: Fibroblast growth factor receptor 2 (Homo sapiens) (UniProt P21802); assay: Inhibition of wild type C-terminal FLAG-tagged human TEL fused FGFR2 (unknown origin) transfected in mouse BAF3 cells assessed as growth inhibition after 72 hrs by CCK8 assay; type: cell-based
[6] = AUC (0 to t) in mouse at 10 mg/kg, po by LC-MS/MS analysis; type: ADME, organism-based; details: in vivo
[7] = Cmax in Sprague-Dawley rat at 10 mg/kg, po by LC-MS/MS analysis; type: ADME, organism-based; parameters: dose 10 mg/kg, route oral; details: in vivo
[8] = test system: OCI-AML2; assay: Antiproliferative activity in human OCI-AML2 cells after 72 hrs by CCK8 assay; type: functional; details: OCI-AML2, 72 h
[9] = test system: K562; assay: Induction of apoptosis in human K562 cells assessed as cleaved PARP level up to 0.3 uM after 24 hrs by immunoblotting analysis; type: functional, cell-based
[10] = target: T1, Bcr/Abl fusion protein (Homo sapiens, UniProt P00519); assay: (§1) Inhibition of BCR/ABL in human K562 cells assessed as inhibition of BCR/ABL autophosphorylation at Y245 site after 1 hr by immunoblotting analysis; type: cell-based
[11] = target: T2, Bcr/Abl fusion protein (Homo sapiens) (UniProt P00519+P11274); assay: as §1; type: cell-based
[12] = target: Proto-oncogene tyrosine-protein kinase Src (Homo sapiens) (UniProt P12931); assay: Inhibition of wild type C-terminal FLAG-tagged human TEL fused SRC (unknown origin) transfected in mouse BAF3 cells assessed as growth inhibition after 72 hrs by CCK8 assay; type: cell-based
[13] = test system: Bcr/Abl fusion protein (Homo sapiens), P00519+P11274 [H396P]; details: BaF3
[14] = Apparent volume of distribution during terminal phase in Sprague-Dawley rat at 1 mg/kg, iv by LC-MS/MS analysis; type: ADME, organism-based; details: in vivo, read-out: Vz
[15] = test system: Bcr/Abl fusion protein (Homo sapiens), P00519+P11274 [F317L]; details: BaF3
[16] = test system: K562; assay: Antiproliferative activity in human K562 cells after 72 hrs by CCK8 assay; type: functional; details: K562, 72 h
[17] = MRT (0 to t) in mouse at 10 mg/kg, po by LC-MS/MS analysis; type: ADME, organism-based; details: in vivo
[18] = target: Bcr/Abl fusion protein (Homo sapiens, UniProt P00519, T315I); assay: Inhibition of BCR/ABL T315I mutant (unknown origin) expressed in mouse BAF3 cells assessed as inhibition of CrkL phosphorylation after 1 hr by immunoblotting analysis; type: cell-based
[19] = target: Epithelial discoidin domain-containing receptor 1 (Homo sapiens) (UniProt Q08345); assay: Inhibition of wild type C-terminal FLAG-tagged human TEL fused DDR1 (unknown origin) transfected in mouse BAF3 cells assessed as growth inhibition after 72 hrs by CCK8 assay; type: cell-based
[20] = test system: MEG-01; assay: Cell cycle arrest in human MEG01 cells assessed as accumulation at G0/G1 phase up to 0.3 uM after 24 hrs by propidium iodide/RNase staining based flow cytometric analysis; type: functional
[21] = Tmax in mouse at 1 mg/kg, iv by LC-MS/MS analysis; type: ADME, organism-based; details: in vivo
[22] = AUC (0 to infinity) in mouse at 1 mg/kg, iv by LC-MS/MS analysis; type: ADME, organism-based; parameters: dose 1 mg/kg, route intravenous, time infinity; details: in vivo
[23] = test system: Bcr/Abl fusion protein (Homo sapiens), P00519+P11274 [Q252H]; details: BaF3
[24] = test system: KU812 cell line; assay: Cell cycle arrest in human KU812 cells assessed as accumulation at G0/G1 phase up to 0.3 uM after 24 hrs by propidium iodide/RNase staining based flow cytometric analysis; type: functional
[25] = target: Fibroblast growth factor receptor 4 (Homo sapiens) (UniProt P22455); assay: Inhibition of wild type C-terminal FLAG-tagged human TEL fused FGFR4 (unknown origin) transfected in mouse BAF3 cells assessed as growth inhibition after 72 hrs by CCK8 assay; type: cell-based
[26] = Tmax in Sprague-Dawley rat at 1 mg/kg, iv by LC-MS/MS analysis; type: ADME, organism-based; details: in vivo
[27] = Half life in Sprague-Dawley rat at 1 mg/kg, iv by LC-MS/MS analysis; type: ADME, organism-based; details: in vivo
[28] = MRT (0 to t) in Sprague-Dawley rat at 10 mg/kg, po by LC-MS/MS analysis; type: ADME, organism-based; details: in vivo
[29] = target: T2, Bcr/Abl fusion protein (Homo sapiens); assay: Inhibition of BCR/ABL in human K562 cells assessed as inhibition of CrkL phosphorylation up to 0.3 uM after 1 hr by immunoblotting analysis; type: cell-based
[30] = Apparent clearance during terminal phase in mouse at 10 mg/kg, po by LC-MS/MS analysis; type: ADME, organism-based; details: in vivo, read-out: CLz/F (converted)
[31] = test system: K562; assay: Cell cycle arrest in human K562 cells assessed as accumulation at G0/G1 phase up to 0.3 uM after 24 hrs by propidium iodide/RNase staining based flow cytometric analysis; type: functional
[32] = test system: Bcr/Abl fusion protein (Homo sapiens), P00519+P11274 [V299L]; details: BaF3
[33] = Oral bioavailability in mouse at 10 mg/kg by LC-MS/MS analysis; type: ADME, organism-based; details: in vivo
[34] = target: T1, Bcr/Abl fusion protein; assay: (§2) Inhibition of BCR/ABL in human MEG01 cells assessed as inhibition of BCR/ABL autophosphorylation at Y245 site after 1 hr by immunoblotting analysis; type: cell-based
[35] = target: T2, Bcr/Abl fusion protein (Homo sapiens); assay: as §2; type: cell-based
[36] = target: Proto-oncogene tyrosine-protein kinase receptor Ret (Homo sapiens) (UniProt P07949); assay: Inhibition of wild type C-terminal FLAG-tagged human TEL fused RET (unknown origin) transfected in mouse BAF3 cells assessed as growth inhibition after 72 hrs by CCK8 assay; type: cell-based
[37] = test system: Bcr/Abl fusion protein (Homo sapiens), P00519+P11274 [Y253F]; details: BaF3
[38] = test system: Bcr/Abl fusion protein (Homo sapiens), P00519+P11274 [M351T]; details: BaF3
[39] = target: Vascular endothelial growth factor receptor 1 (Homo sapiens) (UniProt P17948); assay: Inhibition of wild type C-terminal FLAG-tagged human TEL fused FLT1 (unknown origin) transfected in mouse BAF3 cells assessed as growth inhibition after 72 hrs by CCK8 assay; type: cell-based
[40] = test system: BaF3; assay: Antitumor activity against mouse BAF3 cells expressing BCR/ABL T315I mutant allografted in nu/nu mouse assessed as tumor growth inhibition at 50 mg/kg, po administered via gavage for 14 days relative to control; type: functional; details: 336 h, read-out: TGI

Fibroblast growth factor receptor 4 (Homo sapiens), sequence (P22455 22-802 limits assumed): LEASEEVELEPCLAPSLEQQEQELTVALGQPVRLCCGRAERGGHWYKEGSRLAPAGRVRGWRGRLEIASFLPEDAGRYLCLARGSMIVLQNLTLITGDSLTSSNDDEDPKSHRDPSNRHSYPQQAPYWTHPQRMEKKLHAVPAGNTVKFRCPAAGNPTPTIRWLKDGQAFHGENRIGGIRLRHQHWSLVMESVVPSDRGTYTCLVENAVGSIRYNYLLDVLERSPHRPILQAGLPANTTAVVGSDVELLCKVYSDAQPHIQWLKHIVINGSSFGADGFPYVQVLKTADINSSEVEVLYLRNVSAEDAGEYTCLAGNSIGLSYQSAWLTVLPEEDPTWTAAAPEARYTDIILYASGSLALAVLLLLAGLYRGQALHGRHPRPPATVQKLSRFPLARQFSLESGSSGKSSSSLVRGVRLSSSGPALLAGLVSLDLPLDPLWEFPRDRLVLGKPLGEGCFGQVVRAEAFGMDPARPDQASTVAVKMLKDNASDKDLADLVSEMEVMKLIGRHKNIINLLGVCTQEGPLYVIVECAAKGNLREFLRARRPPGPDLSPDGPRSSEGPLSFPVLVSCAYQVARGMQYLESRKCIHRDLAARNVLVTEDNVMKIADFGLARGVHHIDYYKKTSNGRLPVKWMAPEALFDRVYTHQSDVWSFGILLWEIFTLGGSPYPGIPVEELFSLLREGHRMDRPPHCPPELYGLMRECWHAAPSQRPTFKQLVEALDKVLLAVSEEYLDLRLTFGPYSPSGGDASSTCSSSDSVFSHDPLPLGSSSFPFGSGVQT
Epithelial discoidin domain-containing receptor 1 (Homo sapiens), sequence (Q08345 whole entry, the tested form may be a part): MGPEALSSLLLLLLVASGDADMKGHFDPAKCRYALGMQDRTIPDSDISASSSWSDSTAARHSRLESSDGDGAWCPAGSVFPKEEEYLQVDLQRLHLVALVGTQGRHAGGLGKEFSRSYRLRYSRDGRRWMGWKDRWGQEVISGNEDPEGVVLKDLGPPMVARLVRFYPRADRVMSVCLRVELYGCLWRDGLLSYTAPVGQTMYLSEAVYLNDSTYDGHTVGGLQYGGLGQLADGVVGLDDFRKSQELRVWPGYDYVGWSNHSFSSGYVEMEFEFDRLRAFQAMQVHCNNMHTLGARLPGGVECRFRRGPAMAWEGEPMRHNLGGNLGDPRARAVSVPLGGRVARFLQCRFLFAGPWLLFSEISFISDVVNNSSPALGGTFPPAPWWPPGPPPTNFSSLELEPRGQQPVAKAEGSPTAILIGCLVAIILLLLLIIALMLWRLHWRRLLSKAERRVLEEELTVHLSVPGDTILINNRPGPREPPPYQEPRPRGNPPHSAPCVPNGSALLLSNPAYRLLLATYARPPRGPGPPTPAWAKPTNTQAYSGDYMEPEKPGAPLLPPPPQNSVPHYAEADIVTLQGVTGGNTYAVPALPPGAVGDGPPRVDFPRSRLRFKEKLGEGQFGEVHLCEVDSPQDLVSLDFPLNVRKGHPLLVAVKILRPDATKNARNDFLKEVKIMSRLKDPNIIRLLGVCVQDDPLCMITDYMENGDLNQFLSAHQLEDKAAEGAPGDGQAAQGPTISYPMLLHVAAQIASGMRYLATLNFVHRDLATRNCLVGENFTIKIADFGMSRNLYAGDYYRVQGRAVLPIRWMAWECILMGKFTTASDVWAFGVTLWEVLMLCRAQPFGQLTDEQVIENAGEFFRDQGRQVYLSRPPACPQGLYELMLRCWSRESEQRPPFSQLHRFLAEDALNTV
Fibroblast growth factor receptor 2 (Homo sapiens), sequence (P21802 22-821 limits assumed): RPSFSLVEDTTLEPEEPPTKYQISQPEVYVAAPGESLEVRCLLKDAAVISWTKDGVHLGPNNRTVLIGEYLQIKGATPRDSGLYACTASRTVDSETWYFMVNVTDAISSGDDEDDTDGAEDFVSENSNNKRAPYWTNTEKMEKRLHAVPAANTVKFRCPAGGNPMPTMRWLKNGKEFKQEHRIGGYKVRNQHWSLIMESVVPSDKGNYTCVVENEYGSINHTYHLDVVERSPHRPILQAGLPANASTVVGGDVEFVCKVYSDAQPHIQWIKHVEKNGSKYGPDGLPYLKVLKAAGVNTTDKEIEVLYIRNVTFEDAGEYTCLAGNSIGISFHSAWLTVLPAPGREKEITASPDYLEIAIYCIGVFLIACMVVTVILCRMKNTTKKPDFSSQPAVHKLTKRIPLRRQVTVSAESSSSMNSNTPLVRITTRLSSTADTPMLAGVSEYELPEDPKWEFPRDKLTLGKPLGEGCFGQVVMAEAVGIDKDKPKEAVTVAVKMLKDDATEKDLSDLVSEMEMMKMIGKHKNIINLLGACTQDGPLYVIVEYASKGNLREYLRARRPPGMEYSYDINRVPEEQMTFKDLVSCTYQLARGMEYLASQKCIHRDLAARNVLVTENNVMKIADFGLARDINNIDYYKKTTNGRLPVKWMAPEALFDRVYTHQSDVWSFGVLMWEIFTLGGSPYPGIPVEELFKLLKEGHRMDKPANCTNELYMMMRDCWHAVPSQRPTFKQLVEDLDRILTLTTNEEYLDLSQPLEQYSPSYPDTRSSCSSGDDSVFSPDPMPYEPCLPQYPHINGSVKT
Vascular endothelial growth factor receptor 1 (Homo sapiens), sequence (P17948 whole entry, the tested form may be a part): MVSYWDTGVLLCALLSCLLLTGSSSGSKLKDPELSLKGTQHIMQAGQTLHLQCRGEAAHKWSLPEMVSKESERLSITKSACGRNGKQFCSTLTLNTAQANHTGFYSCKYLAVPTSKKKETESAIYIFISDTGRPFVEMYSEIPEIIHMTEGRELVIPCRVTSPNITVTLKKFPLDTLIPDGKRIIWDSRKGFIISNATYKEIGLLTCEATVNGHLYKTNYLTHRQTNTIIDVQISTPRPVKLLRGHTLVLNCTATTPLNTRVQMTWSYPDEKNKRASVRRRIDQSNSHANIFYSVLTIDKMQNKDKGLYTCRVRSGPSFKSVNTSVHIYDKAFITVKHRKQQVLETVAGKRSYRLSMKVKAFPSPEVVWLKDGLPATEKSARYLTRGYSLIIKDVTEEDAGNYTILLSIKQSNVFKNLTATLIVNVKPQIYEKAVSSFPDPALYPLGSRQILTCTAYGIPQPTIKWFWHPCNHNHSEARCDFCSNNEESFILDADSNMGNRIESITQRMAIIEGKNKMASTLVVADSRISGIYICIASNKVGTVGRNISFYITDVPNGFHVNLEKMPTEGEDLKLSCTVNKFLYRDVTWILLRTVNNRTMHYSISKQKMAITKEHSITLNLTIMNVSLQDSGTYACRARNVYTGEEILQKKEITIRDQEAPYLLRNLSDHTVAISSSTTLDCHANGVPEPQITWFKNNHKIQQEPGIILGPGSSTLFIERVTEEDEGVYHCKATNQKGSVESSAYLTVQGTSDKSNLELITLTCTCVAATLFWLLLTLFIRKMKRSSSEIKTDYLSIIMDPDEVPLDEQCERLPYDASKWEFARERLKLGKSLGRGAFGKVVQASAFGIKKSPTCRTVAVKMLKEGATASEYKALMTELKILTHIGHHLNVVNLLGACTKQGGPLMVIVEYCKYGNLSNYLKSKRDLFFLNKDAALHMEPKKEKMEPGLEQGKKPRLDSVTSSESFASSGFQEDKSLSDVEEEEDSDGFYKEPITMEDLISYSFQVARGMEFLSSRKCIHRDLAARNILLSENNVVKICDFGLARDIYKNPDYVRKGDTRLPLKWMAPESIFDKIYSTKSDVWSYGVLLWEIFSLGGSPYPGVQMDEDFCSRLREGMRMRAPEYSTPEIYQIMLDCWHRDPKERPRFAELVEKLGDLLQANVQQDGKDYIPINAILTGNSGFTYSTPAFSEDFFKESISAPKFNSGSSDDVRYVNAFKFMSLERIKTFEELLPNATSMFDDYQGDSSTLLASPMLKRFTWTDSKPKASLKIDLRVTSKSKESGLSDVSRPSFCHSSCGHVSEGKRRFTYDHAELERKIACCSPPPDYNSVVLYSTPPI
Proto-oncogene tyrosine-protein kinase receptor Ret (Homo sapiens), sequence (P07949 whole entry, the tested form may be a part): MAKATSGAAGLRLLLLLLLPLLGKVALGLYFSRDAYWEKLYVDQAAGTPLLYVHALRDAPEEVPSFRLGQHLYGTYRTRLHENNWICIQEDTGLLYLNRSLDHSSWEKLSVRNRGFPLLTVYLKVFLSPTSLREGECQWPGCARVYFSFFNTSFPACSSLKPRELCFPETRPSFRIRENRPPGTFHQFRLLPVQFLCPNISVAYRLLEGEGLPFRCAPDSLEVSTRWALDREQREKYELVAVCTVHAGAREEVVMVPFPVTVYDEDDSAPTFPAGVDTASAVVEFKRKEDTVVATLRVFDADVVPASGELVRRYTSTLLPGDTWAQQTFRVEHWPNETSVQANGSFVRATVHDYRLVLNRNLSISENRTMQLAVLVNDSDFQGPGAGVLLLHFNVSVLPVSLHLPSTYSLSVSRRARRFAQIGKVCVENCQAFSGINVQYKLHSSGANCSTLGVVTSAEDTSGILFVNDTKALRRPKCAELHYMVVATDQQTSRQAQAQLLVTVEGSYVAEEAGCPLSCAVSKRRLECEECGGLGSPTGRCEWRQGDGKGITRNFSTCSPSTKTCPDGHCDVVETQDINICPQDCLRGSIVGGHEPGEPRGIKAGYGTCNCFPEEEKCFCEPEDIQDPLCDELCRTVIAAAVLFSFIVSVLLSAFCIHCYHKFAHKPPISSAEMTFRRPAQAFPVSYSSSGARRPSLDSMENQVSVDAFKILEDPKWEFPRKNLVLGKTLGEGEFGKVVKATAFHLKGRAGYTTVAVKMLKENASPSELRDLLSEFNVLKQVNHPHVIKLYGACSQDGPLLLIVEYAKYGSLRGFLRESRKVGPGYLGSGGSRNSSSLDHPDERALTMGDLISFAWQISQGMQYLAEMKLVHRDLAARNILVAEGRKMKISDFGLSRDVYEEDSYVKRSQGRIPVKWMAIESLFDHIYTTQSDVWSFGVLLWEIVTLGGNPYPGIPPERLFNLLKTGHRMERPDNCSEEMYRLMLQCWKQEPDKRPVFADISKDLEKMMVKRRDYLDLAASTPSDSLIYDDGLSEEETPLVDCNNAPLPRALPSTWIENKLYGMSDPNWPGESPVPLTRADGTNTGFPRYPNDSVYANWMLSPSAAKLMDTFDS

## CN1CCN(Cc2ccc(NC(=O)CCSc3ccc4c(/C=C/c5ccccn5)n[nH]c4c3)cc2C(F)(F)F)CC1
[1]
  Cmax: 87.7 ng/mL
[2]
  AUC(0-t): 192 ng·h/mL
[3]
  GI50: 0.78 µM
[4]
  GI50: 0.5 µM
[5]
  GI50: 0.036 µM
[6]
  AUC(0-t): 225 ng·h/mL
[7]
  Cmax: 48.6 ng/mL
[8]
  GI50: 1.42 µM
[9]
  Activity: Active
[10]
  EC50: < 0.01 µM
[11]
  inhibition: Dose-dependent effect
[12]
  GI50: 1.05 µM
[13]
  GI50: 0.035 µM
[14]
  Vd: 17.7 L/kg
[15]
  GI50: 0.018 µM
[16]
  GI50: 0.001 µM
[17]
  MRT last: 3.3 h
[18]
  EC50: < 0.01 µM
[19]
  GI50: 1.36 µM
[20]
  Activity: Active
[21]
  Tmax: 1.8 min
[22]
  AUC(0-inf): 160 ng·h/mL
[23]
  GI50: 0.015 µM
[24]
  Activity: Active
[25]
  GI50: 0.075 µM
[26]
  Tmax: 1.2 min
[27]
  half-life: 2.3 h
[28]
  MRT last: 4.4 h
[29]
  inhibition: Active
[30]
  CL/F: 723 mL/min/kg
[31]
  Activity: Active
[32]
  GI50: 0.103 µM
[33]
  bioavailability: 14.4%
[34]
  EC50: < 0.01 µM
[35]
  inhibition: Dose-dependent effect
[36]
  GI50: 0.2 µM
[37]
  GI50: 0.18 µM
[38]
  GI50: 0.017 µM
[39]
  GI50: 0.002 µM
[40]
  inhibition in vivo at 50 mg/kg: 52%
